Data reported in patent US20260138958A1, “SUBSTITUTED N-PHENYLURACILS AND SALTS THEREOF, AND USE THEREOF AS HERBICIDAL ACTIVE SUBSTANCES” (Bayer Aktiengesellschaft, priority 2022, published 2026).

Assays:
Format in all cases: in vivo
crop plants = assay: Post-emergence crop plant compatibility, summary statements over several crops; conditions: 5 g or less per hectare, ORYSA, ZEAMX, TRZAS
Experimental: (§1) Seeds of monocotyledonous and dicotyledonous weeds and crop plants were placed in sandy loam in plastic or wood-fibre pots, covered with soil and cultivated in a greenhouse under controlled growth conditions. 2 to 3 weeks after sowing, the test plants were treated at the one-leaf stage. The compounds of the invention, formulated in the form of wettable powders (WP) or as emulsion concentrates (EC), were then sprayed onto the green parts of the plants as aqueous suspension or emulsion with addition of 0.5% additive at a water application rate of 600 l/ha (converted). After the test plants had been kept in the greenhouse under optimum growth conditions for about 3 weeks, the activity of the preparations was rated visually in comparison to untreated controls. For example, 100% activity=the plants have died, 0% activity=like control plants.
The observed effects on selected crop plants are reported here in comparison to the untreated controls (values in %).

[1] = system: Amaranthus retroflexus (AMARE); assay: Post-emergence herbicidal action, greenhouse pot test; conditions: Amaranthus retroflexus, 504 h
Outline: (§2)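 Foliar spray on one-leaf-stage pot plants in sandy loam (WP or EC, 0.5% additive, 600 l/ha water), then about 3 weeks under optimum greenhouse conditions before visual scoring on a 0–100% scale against untreated controls, where 100% means plant death.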

[2] = system: Echinochloa crus-galli (ECHCG); assay: as above
Outline: as §2

[3] = system: Tripleurospermum inodorum (MATIN); assay: as above; conditions: Tripleurospermum inodorum, 504 h, 20 g/ha, read-out: Post-emergence effect at 20 g/ha against MATIN in %
Outline: as §2

Veronica persica (VERPE) = assay: as above
Outline: as §2

Viola tricolor (VIOTR) = assay: as above
Outline: as §2

[4] = system: Alopecurus myosuroides (ALOMY); assay: as above; conditions: Alopecurus myosuroides, 504 h, 20 g/ha, read-out: Post-emergence effect at 20 g/ha against ALOMY in %
Outline: as §2

[5] = system: Abutilon theophrasti (ABUTH); assay: as above
Outline: as §2

Bassia scoparia (KCHSC) = assay: as above
Outline: as §2

[6] = system: Digitaria sanguinalis (DIGSA); assay: as above
Outline: as §2

[7] = system: Pharbitis purpurea (PHBPU); assay: as above
Outline: as §2

Setaria viridis (SETVI) = assay: as above
Outline: as §2

[8] = system: Polygonum convolvulus (POLCO); assay: as above; conditions: Fallopia convolvulus, 504 h
Outline: as §2

harmful plants = assay: Post-emergence herbicidal action, summary statements over several weeds; conditions: 20 g or less per hectare, ALOMY, ECHCG, AVEFA, VERPE
Experimental: as §1

[9] = system: Triticum aestivum (TRZAS); assay: Post-emergence crop plant compatibility, greenhouse pot test; conditions: Triticum aestivum, in vivo
Outline: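 Crops grown in sandy loam in the greenhouse were sprayed post-emergence at the one-leaf stage, 2–3 weeks after sowing, with WP or EC formulations plus 0.5% additive at 600 l/ha water. Damage was rated visually after about 3 weeks against untreated controls (0% = like control, 100% = dead).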

`Cn1c(C(F)(F)F)cc(=O)n(-c2cc(Oc3ccccc3OCC(=O)OCC3CCCCC3)c(Cl)cc2F)c1=O` [I.7-14] was tested, and the “compatibility with crop plants by comparison with a-27, a-29 or a generically encompassed structure (WO2002/098227)” value (crop plants) was “distinctly improved compatibility”, the pest or weed control at 1.25 g/ha ([1]; 1.25 g/ha, read-out: Post-emergence effect at 1.25 g/ha against AMARE in %) was 100% and the pest or weed control at 5 g/ha ([1]; 5 g/ha, read-out: Post-emergence effect at 5 g/ha against AMARE in %) was 100%. The pest or weed control at 20 g/ha ([1]; 20 g/ha, read-out: Post-emergence effect at 20 g/ha against AMARE in %) was 100%, the “Post-emergence effect at 1.25 g/ha against ECHCG in %” value ([2]; 1.25 g/ha) was 90% and the “Post-emergence effect at 5 g/ha against ECHCG in %” value ([2]; 5 g/ha) was 100%. The pest or weed control at 20 g/ha ([2]; Echinochloa crus-galli, 504 h, 20 g/ha, read-out: Post-emergence effect at 20 g/ha against ECHCG in %) was 100%, the pest or weed control at 20 g/ha [3] was 90% and the “Post-emergence effect at 1.25 g/ha against VERPE in %” value (Veronica persica (VERPE); 1.25 g/ha) was 100%. For the same molecule, the “VERPE (efficacy in %)” value (Veronica persica (VERPE); Table B4 comparison, application rate 1.25 g/ha) was 100%, the pest or weed control at 5 g/ha (Veronica persica (VERPE); Veronica persica, 504 h, 5 g/ha, read-out: Post-emergence effect at 5 g/ha against VERPE in %) was 100% and the pest or weed control at 20 g/ha (Veronica persica (VERPE); Veronica persica, 504 h, 20 g/ha, read-out: Post-emergence effect at 20 g/ha against VERPE in %) was 100%. For the same molecule, the “Post-emergence effect at 1.25 g/ha against VIOTR in %” value (Viola tricolor (VIOTR); 1.25 g/ha) was 100%, the “Post-emergence effect at 5 g/ha against VIOTR in %” value (Viola tricolor (VIOTR); 5 g/ha) was 100% and the pest or weed control at 20 g/ha (Viola tricolor (VIOTR); Viola tricolor, 504 h, 20 g/ha, read-out: Post-emergence effect at 20 g/ha against VIOTR in %) was 100%. For the same molecule, the pest or weed control at 20 g/ha [4] was 100%, the “Post-emergence effect at 1.25 g/ha against ABUTH in %” value ([5]; 1.25 g/ha) was 100% and the pest or weed control at 5 g/ha ([5]; Abutilon theophrasti, 504 h, 5 g/ha, read-out: Post-emergence effect at 5 g/ha against ABUTH in %) was 100%. For the same molecule, the pest or weed control at 20 g/ha ([5]; Abutilon theophrasti, 504 h, 20 g/ha, read-out: Post-emergence effect at 20 g/ha against ABUTH in %) was 100%, the “Post-emergence effect at 1.25 g/ha against KCHSC in %” value (Bassia scoparia (KCHSC); 1.25 g/ha) was 100% and the “Post-emergence effect at 5 g/ha against KCHSC in %” value (Bassia scoparia (KCHSC); 5 g/ha) was 100%. The “Post-emergence effect at 20 g/ha against KCHSC in %” value (Bassia scoparia (KCHSC); 20 g/ha) was 100%, the “Post-emergence effect at 5 g/ha against DIGSA in %” value ([6]; 5 g/ha) was 100% and the “Post-emergence effect at 20 g/ha against DIGSA in %” value ([6]; 20 g/ha) was 100%. For the same molecule, the “Post-emergence effect at 1.25 g/ha against PHBPU in %” value ([7]; 1.25 g/ha) was 100%, the pest or weed control at 5 g/ha ([7]; Ipomoea purpurea, 504 h, 5 g/ha, read-out: Post-emergence effect at 5 g/ha against PHBPU in %) was 100% and the pest or weed control at 20 g/ha ([7]; Ipomoea purpurea, 504 h, 20 g/ha, read-out: Post-emergence effect at 20 g/ha against PHBPU in %) was 100%. The “Post-emergence effect at 1.25 g/ha against SETVI in %” value (Setaria viridis (SETVI); 1.25 g/ha) was 100%, the pest or weed control at 5 g/ha (Setaria viridis (SETVI); Setaria viridis, 504 h, 5 g/ha, read-out: Post-emergence effect at 5 g/ha against SETVI in %) was 100% and the pest or weed control at 20 g/ha (Setaria viridis (SETVI); Setaria viridis, 504 h, 20 g/ha, read-out: Post-emergence effect at 20 g/ha against SETVI in %) was 100%. For the same molecule, the pest or weed control at 5 g/ha ([8]; 5 g/ha, read-out: Post-emergence effect at 5 g/ha against POLCO in %) was 100%, the pest or weed control at 20 g/ha ([8]; 20 g/ha, read-out: Post-emergence effect at 20 g/ha against POLCO in %) was 100% and the “herbicidal efficacy by comparison with a-27, a-29 or a generically encompassed structure (WO2002/098227)” value (harmful plants) was “distinctly improved herbicidal efficacy”. The “Post-emergence effect at 1.25 g/ha against TRZAS in %” value [9] was 20%.
